Test results taken from patent US12577206B2 (BRISTOL-MYERS SQUIBB COMPANY, priority 2020, dated 2026).

Tests used:
human FPR2 = target: T1, human FPR2 (Homo sapiens, UniProt P25090); assay: FPR2 cyclic adenosine monophosphate (cAMP) assay; type: cell-based; details: CHO cells overexpressing human FPR2; forskolin 5 μM; inhibition of cAMP production; HTRF; read-out: hFPR2 cAMP2 EC50
T1 sequence (P25090 1-351): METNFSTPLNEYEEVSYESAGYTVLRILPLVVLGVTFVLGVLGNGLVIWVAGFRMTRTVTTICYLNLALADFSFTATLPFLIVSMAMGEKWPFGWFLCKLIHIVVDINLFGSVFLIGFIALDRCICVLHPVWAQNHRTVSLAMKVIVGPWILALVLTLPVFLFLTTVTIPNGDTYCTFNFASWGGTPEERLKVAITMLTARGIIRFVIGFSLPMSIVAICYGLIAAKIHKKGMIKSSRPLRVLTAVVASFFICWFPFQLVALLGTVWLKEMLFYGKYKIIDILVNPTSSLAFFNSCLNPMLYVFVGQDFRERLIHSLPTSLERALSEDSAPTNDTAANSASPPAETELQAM
Method in brief: (§1)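 CHO/hFPR1 4,000 cells/well, forskolin 10 μM final; CHO/hFPR2 2,000 cells/well, forskolin 5 μM final. IBMX 200 μM, DMSO 1%, DPBS + Ca/Mg + 0.1% BSA, 30 min rt. HTRF cAMP; 4-PL fit.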

human FPR1 = target: T2, human FPR1 (Homo sapiens, UniProt P21462); assay: FPR1 cyclic adenosine monophosphate (cAMP) assay; type: cell-based; details: CHO cells overexpressing human FPR1; forskolin 10 μM; inhibition of cAMP production; HTRF; read-out: hFPR1 cAMP2 EC50
T2 sequence (P21462 1-350): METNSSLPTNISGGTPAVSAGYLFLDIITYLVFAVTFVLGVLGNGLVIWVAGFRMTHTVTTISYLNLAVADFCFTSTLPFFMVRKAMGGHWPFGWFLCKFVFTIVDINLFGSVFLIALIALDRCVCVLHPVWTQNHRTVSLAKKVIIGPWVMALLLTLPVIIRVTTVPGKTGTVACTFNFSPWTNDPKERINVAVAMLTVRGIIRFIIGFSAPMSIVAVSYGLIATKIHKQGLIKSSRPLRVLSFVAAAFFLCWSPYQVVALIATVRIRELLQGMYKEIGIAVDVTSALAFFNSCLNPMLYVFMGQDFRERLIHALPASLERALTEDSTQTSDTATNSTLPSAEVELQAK
Method in brief: as §1

SMILES | EC50 (human FPR2) [nM] | EC50 (human FPR1) [nM]
COc1cc(F)c(-c2c(NC(=O)c3ccc(OC(F)F)cc3)c(=O)n(-c3ncccc3Cl)n2C)c(F)c1 [Example 197, N-[2-(3-chloropyridin-2-yl)-5-(2,6-difluoro-4-methoxyphenyl)-1-methyl-3-oxo-2,3-dihydro-1H-pyrazol-4-yl]-4-(difluoromethoxy)benzamide] | 16 | > 10000
COc1cc(F)c(-c2c(NC(=O)c3ccc(OC(F)F)cc3)c(=O)n(-c3cc(OC)ccc3Cl)n2C)c(F)c1 [Example 198, N-[2-(2-chloro-5-methoxyphenyl)-5-(2,6-difluoro-4-methoxyphenyl)-1-methyl-3-oxo-2,3-dihydro-1H-pyrazol-4-yl]-4-(difluoromethoxy)benzamide] | 13 | > 10000
COc1cc(F)c(-c2c(NC(=O)c3ccc(OC(F)F)cc3)c(=O)n(-c3nc(N4CCN(C)CC4)ccc3C#N)n2C)c(F)c1 [Example 202, N-{2-[3-cyano-6-(4-methylpiperazin-1-yl)pyridin-2-yl]-5-(2,6-difluoro-4-methoxyphenyl)-1-methyl-3-oxo-2,3-dihydro-1H-pyrazol-4-yl}-4-(difluoromethoxy)benzamide] | 32 | 2500
COc1cc(F)c(-c2c(NC(=O)c3ccc(OC(F)F)cc3)c(=O)n(-c3cccc(CN4CCN(C)CC4)n3)n2C)c(F)c1 [Example 205, N-[5-(2,6-difluoro-4-methoxyphenyl)-1-methyl-2-{6-[(4-methylpiperazin-1-yl)methyl]pyridin-2-yl}-3-oxo-2,3-dihydro-1H-pyrazol-4-yl]-4-(difluoromethoxy)benzamide] | 25 | > 10000
COc1cc(F)c(-c2c(NC(=O)c3ccc(OC(F)F)cc3)c(=O)n(-c3cccc(N4CCN(CCS(C)(=O)=O)CC4)n3)n2C)c(F)c1 [Example 206, N-[5-(2,6-difluoro-4-methoxyphenyl)-2-{6-[4-(2-methanesulfonylethyl)piperazin-1-yl]pyridin-2-yl}-1-methyl-3-oxo-2,3-dihydro-1H-pyrazol-4-yl]-4-(difluoromethoxy)benzamide] | 44 | > 5000
COc1cc(F)c(-c2c(NC(=O)c3ccc(OC(F)F)cc3)c(=O)n(-c3cccc(N4CCN(CCCO)CC4)n3)n2C)c(F)c1 [Example 208, N-[5-(2,6-difluoro-4-methoxyphenyl)-2-{6-[4-(3-hydroxypropyl)piperazin-1-yl]pyridin-2-yl}-1-methyl-3-oxo-2,3-dihydro-1H-pyrazol 4-yl]-4-(difluoromethoxy)benzamide] | 3 | > 10000
COc1cc(F)c(-c2c(NC(=O)c3ccc(OC(F)F)cc3)c(=O)n(-c3nc(Cl)ccc3N(C)C)n2C)c(F)c1 [Example 209, N-{2-[6-chloro-3-(dimethylamino)pyridin-2-yl]-5-(2,6-difluoro-4-methoxyphenyl)-1-methyl-3-oxo-2,3-dihydro-1H-pyrazol-4-yl}-4-(difluoromethoxy)benzamide] | 3 | > 10000
COc1cc(F)c(-c2c(NC(=O)c3ccc(OC(F)F)cc3)c(=O)n(-c3nc(N4CC(C)(O)C4)ccc3F)n2C)c(F)c1 [Example 210, N-[5-(2,6-difluoro-4-methoxyphenyl)-2-[3-fluoro-6-(3-hydroxy-3-methylazetidin-1-yl)pyridin-2-yl]-1-methyl-3-oxo-2,3-dihydro-1H-pyrazol-4-yl]-4-(difluoromethoxy)benzamide] | 11 | 4800
COc1cc(F)c(-c2c(NC(=O)c3ccc(OC(F)F)cc3)c(=O)n(-c3ncccc3N3CC(C)(O)C3)n2C)c(F)c1 [Example 211, N-[5-(2,6-difluoro-4-methoxyphenyl)-2-[3-(3-hydroxy-3-methylazetidin-1-yl)pyridin-2-yl]-1-methyl-3-oxo-2,3-dihydro-1H-pyrazol-4-yl]-4-(difluoromethoxy)benzamide] | 12 | > 10000
COc1cc(F)c(-c2c(NC(=O)c3ccc(OC(F)F)cc3)c(=O)n(-c3cccc(N4CCN(S(C)(=O)=O)CC4)n3)n2C)c(F)c1 [Example 213, N-[5-(2,6-difluoro-4-methoxyphenyl)-2-[6-(4-methanesulfonylpiperazin-1-yl)pyridin-2-yl]-1-methyl-3-oxo-2,3-dihydro-1H-pyrazol-4-yl]-4-(difluoromethoxy)benzamide] | 16 | > 10000
COc1cc(F)c(-c2c(NC(=O)c3ccc(OC(F)F)cc3)c(=O)n(-c3nc(N4CCNC(=O)C4)ccc3C(F)(F)F)n2C)c(F)c1 [Example 214, N-[5-(2,6-difluoro-4-methoxyphenyl)-1-methyl-3-oxo-2-[6-(3-oxopiperazin-1-yl)-3-(trifluoromethyl)pyridin-2-yl]-2,3-dihydro-1H-pyrazol-4-yl]-4-(difluoromethoxy)benzamide] | 4 | 150

Further compounds by falling EC50 (human FPR2), results first:

EC50 (human FPR2) [nM] | EC50 (human FPR1) [nM] | SMILES
15 | > 10000 | COc1cc(F)c(-c2c(NC(=O)c3ccc(OC(F)F)cc3)c(=O)n(-c3cccc(CN(C)C)n3)n2C)c(F)c1 [Example 204, N-[5-(2,6-difluoro-4-methoxyphenyl)-2-{6-[(dimethylamino)methyl]pyridin-2-yl}-1-methyl-3-oxo-2,3-dihydro-1H-pyrazol-4-yl]-4-(difluoromethoxy)benzamide]
9 | > 10000 | COCCN1CCN(c2cccc(-n3c(=O)c(NC(=O)c4ccc(OC(F)F)cc4)c(-c4c(F)cc(OC)cc4F)n3C)n2)CC1 [Example 212, N-[5-(2,6-difluoro-4-methoxyphenyl)-2-{6-[4-(2-methoxyethyl)piperazin-1-yl]pyridin-2-yl}-1-methyl-3-oxo-2,3-dihydro-1H-pyrazol-4-yl]-4-(difluoromethoxy)benzamide]
5 | 900 | COc1cc(F)c(-c2c(NC(=O)c3ccc(OC(F)F)cc3)c(=O)n(-c3nccc(C4CCCCC4)c3C#N)n2C)c(F)c1 [Example 199, N-[2-(3-cyano-4-cyclohexylpyridin-2-yl)-5-(2,6-difluoro-4-methoxyphenyl)-1methyl-3-oxo-2,3-dihydro-1H-pyrazol-4-yl]-4-(difluoromethoxy)benzamide]
5 | > 10000 | COc1cc(F)c(-c2c(NC(=O)c3ccc(OC(F)F)cc3)c(=O)n(-c3nc(Cl)ccc3N3CC(C)(O)C3)n2C)c(F)c1 [Example 203, N-{2-[6-chloro-3-(3-hydroxy-3-methylazetidin-1-yl)pyridin-2-yl]-5-(2,6-difluoro-4-methoxyphenyl)-1-methyl-3-oxo-2,3-dihydro-1H-pyrazol-4-yl}-4-(difluoromethoxy)benzamide]
4 | > 10000 | COc1cc(F)c(-c2c(NC(=O)c3ccc(OC(F)F)cc3)c(=O)n(-c3nccc(C)c3C#N)n2C)c(F)c1 [Example 201, N-[2-(3-cyano-4-methylpyridin-2-yl)-5-(2,6-difluoro-4-methoxyphenyl)-1-methyl-3-oxo-2,3-dihydro-1H-pyrazol-4-yl]-4-(difluoromethoxy)benzamide]
3 | 140 | COc1cc(F)c(-c2c(NC(=O)c3ccc(OC(F)F)cc3)c(=O)n(-c3cccc(N4CCN(CC5CC5)CC4)n3)n2C)c(F)c1 [Example 207, N-(2-{6-[4-(cyclopropylmethyl)piperazin-1-yl]pyridin-2-yl}-5-(2,6-difluoro-4-methoxyphenyl)-1-methyl-3-oxo-2,3-dihydro-1H-pyrazol-4-yl)-4-(difluoromethoxy)benzamide]
